What follows are molecules tested against human TYK2 (JH2domain-pseudokinase) (Homo sapiens (Human), UniProt P29597) (assay: TYK2 JH2 Domain Binding Assay (KINOMEscan, DiscoveRx)). Conditions: 11-point dilution, duplicate.
In short: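 Kd from duplicate 11-point 3-fold dilutions starting at 30,000 nM, fitted by Hill equation with slope fixed at −1. Compounds (final 0.9% DMSO) displace DNA-tagged HEK293-expressed TYK2 JH2 fusion (<0.1 nM) from ligand-coated beads over 1 h at room temperature; eluted kinase read by qPCR.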

Chain of human TYK2 (JH2domain-pseudokinase) (P29597 556-888): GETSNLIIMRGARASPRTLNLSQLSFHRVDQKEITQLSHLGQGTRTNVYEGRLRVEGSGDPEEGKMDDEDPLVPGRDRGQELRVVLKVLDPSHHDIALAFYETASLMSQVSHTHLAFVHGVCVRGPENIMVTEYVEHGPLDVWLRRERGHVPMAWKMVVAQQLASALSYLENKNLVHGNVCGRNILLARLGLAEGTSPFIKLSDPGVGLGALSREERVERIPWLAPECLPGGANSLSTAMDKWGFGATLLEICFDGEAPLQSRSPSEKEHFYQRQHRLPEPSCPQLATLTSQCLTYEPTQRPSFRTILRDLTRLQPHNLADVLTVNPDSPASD

First: Cc1nc2c(Nc3ccc([C@H]4CCCO4)cc3S(C)(=O)=O)cc(Nc3ccc(C(C)C)c(C#N)n3)nc2[nH]1 [I-595, (R)-3-isopropyl-6-((2-methyl-7-((2-(methylsulfonyl)-4-(tetrahydrofuran-2-yl)phenyl)amino)-3H-imidazo[4,5-b]pyridin-5-yl)amino)picolinonitrile]
Second: Cc1nc2c(Nc3ccc([C@@H]4CCCO4)cc3S(C)(=O)=O)cc(Nc3ccc(C(C)C)c(C#N)n3)nc2[nH]1 [I-596, (S)-3-isopropyl-6-((2-methyl-7-((2-(methylsulfonyl)-4-(tetrahydrofuran-2-yl)phenyl)amino)-3H-imidazo[4,5-b]pyridin-5-yl)amino)picolinonitrile]
The Kd of the first is lower: 0.1 to 0.5 nM for the first, 0.5 to 1 nM for the second.

First: Cc1nc2c(Nc3ccccc3S(C)(=O)=O)cc(Nc3cc4c(nn3)CCC4)nc2[nH]1 [I-597, N5-(6,7-dihydro-5H-cyclopenta[c]pyridazin-3-yl)-2-methyl-N7-(2-(methylsulfonyl)phenyl)-3H-imidazo[4,5-b]pyridine-5,7-diamine]
Second: Cc1nc2c(Nc3ccccc3S(C)(=O)=O)cc(Nc3ccc4c(n3)C(F)(F)CC4)nc2[nH]1 [I-618, N5-(7,7-difluoro-6,7-dihydro-5H-cyclopenta[b]pyridin-2-yl)-2-methyl-N7-(2-(methylsulfonyl)phenyl)-3H-imidazo[4,5-b]pyridine-5,7-diamine]
The Kd of the first is higher: 0.1 to 0.5 nM for the first, less than 0.1 nM for the second. The second binds more tightly here.

First: COc1c(Nc2cc(Nc3cccc(C#N)n3)nc3[nH]c(C(F)F)nc23)cccc1-c1noc(C)n1 [I-598, 6-((2-(difluoromethyl)-7-((2-methoxy-3-(5-methyl-1,2,4-oxadiazol-3-yl)phenyl)amino)-3H-imidazo[4,5-b]pyridin-5-yl)amino)picolinonitrile]
Second: CS(=O)(=O)c1ccccc1Nc1cc(Nc2cccc(C#N)n2)nc2[nH]c(C(F)F)nc12 [I-602, 6-((2-(difluoromethyl)-7-((2-(methylsulfonyl)phenyl)amino)-3H-imidazo[4,5-b]pyridin-5-yl)amino)picolinonitrile]
The Kd of the first is higher: 0.5 to 1 nM for the first, less than 0.1 nM for the second. The second binds more tightly here.

First: CS(=O)(=O)c1ccccc1Nc1cc(Nc2cccc(C(F)(F)F)n2)nc2[nH]c(C(F)F)nc12 [I-599]
Second: Cc1nc2c(Nc3ccccc3S(C)(=O)=O)cc(Nc3cccc(C(F)(F)F)n3)nc2[nH]1 [I-600, 2-methyl-N7-(2-(methylsulfonyl)phenyl)-N5-(6-(trifluoromethyl)pyridin-2-yl)-3H-imidazo[4,5-b]pyridine-5,7-diamine]
The Kd of the first is higher: 0.5 to 1 nM for the first, 0.1 to 0.5 nM for the second. The second binds more tightly here.

First: Cc1nc2c(Nc3ccc(C4CCC(C)(C)CO4)cc3S(C)(=O)=O)cc(Nc3cnc(C)c(C)n3)nc2[nH]1 (stereo not drawn) [I-601, N5-(5,6-dimethylpyrazin-2-yl)-N7-(4-(5,5-dimethyltetrahydro-2H-pyran-2-yl)-2-(methylsulfonyl)phenyl)-2-methyl-3H-imidazo[4,5-b]pyridine-5,7-diamine]
Second: Cc1nc2c(Nc3ccc([C@H]4CCC(C)(C)CO4)cc3S(C)(=O)=O)cc(Nc3cnc(C)c(C)n3)nc2[nH]1 [I-609, (R)—N5-(5,6-dimethylpyrazin-2-yl)-N7-(4-(5,5-dimethyltetrahydro-2H-pyran-2-yl)-2-(methylsulfonyl)phenyl)-2-methyl-3H-imidazo[4,5-b]pyridine-5,7-diamine]
The Kd of the first is higher: 0.5 to 1 nM for the first, 0.1 to 0.5 nM for the second. The second binds more tightly here.

Compared with `Cc1nc2c(Nc3ccccc3S(C)(=O)=O)cc(Nc3cccc(C#N)n3)nc2[nH]1` [I-603, 6-((2-methyl-7-((2-(methylsulfonyl)phenyl)amino)-3H-imidazo[4,5-b]pyridin-5-yl)amino)picolinonitrile], `COCCOc1ccc(Nc2cc(Nc3ccccc3S(C)(=O)=O)c3nc(C)[nH]c3n2)nc1C#N` [I-620, 3-(2-methoxyethoxy)-6-((2-methyl-7-((2-(methylsulfonyl)phenyl)amino)-3H-imidazo[4,5-b]pyridin-5-yl)amino)picolinonitrile] is lower in Kd: 0.1 to 0.5 nM for the first, less than 0.1 nM for the second. The second binds more tightly here.

`Cc1nc2c(Nc3ccc(C4COCCO4)cc3S(C)(=O)=O)cc(NC(=O)C3CC3)nc2[nH]1` (stereo not drawn) [I-604, N-(7-((4-(1,4-dioxan-2-yl)-2-(methylsulfonyl)phenyl)amino)-2-methyl-3H-imidazo[4,5-b]pyridin-5-yl)cyclopropanecarboxamide] and `Cc1nc2c(Nc3ccc([C@@H]4COCCO4)cc3S(C)(=O)=O)cc(NC(=O)C3CC3)nc2[nH]1` [I-611, (R)—N-(7-((4-(1,4-dioxan-2-yl)-2-(methylsulfonyl)phenyl)amino)-2-methyl-3H-imidazo[4,5-b]pyridin-5-yl)cyclopropanecarboxamide] fall in the same range of Kd: 0.1 to 0.5 nM for the first, 0.1 to 0.5 nM for the second.

First: Cc1ncc(Nc2cc(Nc3ccc(C4CCC(C)(C)CO4)cc3S(C)(=O)=O)c3nc(C(F)F)[nH]c3n2)nc1C (stereo not drawn) [I-605, 2-(difluoromethyl)-N5-(5,6-dimethylpyrazin-2-yl)-N7-(4-(5,5-dimethyltetrahydro-2H-pyran-2-yl)-2-(methylsulfonyl)phenyl)-3H-imidazo[4,5-b]pyridine-5,7-diamine]
Second: Cc1nc2c(Nc3ccc([C@@H]4CCC(C)(C)CO4)cc3S(C)(=O)=O)cc(Nc3cnc(C)c(C)n3)nc2[nH]1 [I-610, (S)—N5-(5,6-dimethylpyrazin-2-yl)-N7-(4-(5,5-dimethyltetrahydro-2H-pyran-2-yl)-2-(methylsulfonyl)phenyl)-2-methyl-3H-imidazo[4,5-b]pyridine-5,7-diamine]
The Kd of the first is lower: 0.1 to 0.5 nM for the first, 1 to 10 nM for the second. The first binds more tightly here.

Compared with `COc1c(Nc2cc(Nc3cccc(C(F)(F)F)n3)nc3[nH]c(C)nc23)cccc1-c1cnn(C)n1` [I-606, N7-(2-methoxy-3-(2-methyl-2H-1,2,3-triazol-4-yl)phenyl)-2-methyl-N5-(6-(trifluoromethyl)pyridin-2-yl)-3H-imidazo[4,5-b]pyridine-5,7-diamine], `CCOc1ccc(Nc2cc(Nc3ccc(F)cc3S(C)(=O)=O)c3nc(C)[nH]c3n2)nc1C#N` [I-608, 3-ethoxy-6-((7-((4-fluoro-2-(methylsulfonyl)phenyl)amino)-2-methyl-3H-imidazo[4,5-b]pyridin-5-yl)amino)picolinonitrile] is lower in Kd: 1 to 10 nM for the first, 0.1 to 0.5 nM for the second. The second binds more tightly here.

`CCOc1ccc(Nc2cc(Nc3ccc(F)cc3S(C)(=O)=O)c3nc(C(F)F)[nH]c3n2)nc1C#N` [I-607, 6-((2-(difluoromethyl)-7-((4-fluoro-2-(methylsulfonyl)phenyl)amino)-3H-imidazo[4,5-b]pyridin-5-yl)amino)-3-ethoxypicolinonitrile] and `COCCOc1ccc(Nc2cc(Nc3ccc(F)cc3S(C)(=O)=O)c3nc(C(F)F)[nH]c3n2)nc1C#N` [I-621, 6-((2-(difluoromethyl)-7-((4-fluoro-2-(methylsulfonyl)phenyl)amino)-3H-imidazo[4,5-b]pyridin-5-yl)amino)-3-(2-methoxyethoxy)picolinonitrile] fall in the same range of Kd: 0.1 to 0.5 nM for the first, 0.1 to 0.5 nM for the second.

First: Cc1nc2c(Nc3ccc([C@H]4COCCO4)cc3S(C)(=O)=O)cc(NC(=O)C3CC3)nc2[nH]1 [I-612, (S)—N-(7-((4-(1,4-dioxan-2-yl)-2-(methylsulfonyl)phenyl)amino)-2-methyl-3H-imidazo[4,5-b]pyridin-5-yl)cyclopropanecarboxamide]
Second: Cc1nc2c(Nc3ccc([C@H]4CCC(F)(F)CO4)cc3S(C)(=O)=O)cc(NC(=O)C3CC3)nc2[nH]1 [I-615, (R)—N-(7-((4-(5,5-difluorotetrahydro-2H-pyran-2-yl)-2-(methylsulfonyl)phenyl)amino)-2-methyl-3H-imidazo[4,5-b]pyridin-5-yl)cyclopropanecarboxamide]
The Kd of the first is lower: 0.1 to 0.5 nM for the first, 0.5 to 1 nM for the second.

Compared with `Cc1nc2c(Nc3ccc([C@@H]4CCC(F)(F)CO4)cc3S(C)(=O)=O)cc(NC(=O)C3CC3)nc2[nH]1` [I-616, (S)—N-(7-((4-(5,5-difluorotetrahydro-2H-pyran-2-yl)-2-(methylsulfonyl)phenyl)amino)-2-methyl-3H-imidazo[4,5-b]pyridin-5-yl)cyclopropanecarboxamide], `Cc1nc2c(Nc3ccc(F)cc3S(C)(=O)=O)cc(Nc3ccc(OC4CCOCC4)c(C#N)n3)nc2[nH]1` [I-626, 6-((7-((4-fluoro-2-(methylsulfonyl)phenyl)amino)-2-methyl-3H-imidazo[4,5-b]pyridin-5-yl)amino)-3-((tetrahydro-2H-pyran-4-yl)oxy)picolinonitrile] is lower in Kd: 0.1 to 0.5 nM for the first, less than 0.1 nM for the second.

First: CS(=O)(=O)c1ccccc1Nc1cc(Nc2ccc3c(n2)C(F)(F)CC3)nc2[nH]c(C(F)F)nc12 [I-617, N5-(7,7-difluoro-6,7-dihydro-5H-cyclopenta[b]pyridin-2-yl)-2-(difluoromethyl)-N7-(2-(methylsulfonyl)phenyl)-3H-imidazo[4,5-b]pyridine-5,7-diamine]
Second: COCCOc1ccc(Nc2cc(Nc3ccccc3S(C)(=O)=O)c3nc(C(F)F)[nH]c3n2)nc1C#N [I-619, 6-((2-(difluoromethyl)-7-((2-(methylsulfonyl)phenyl)amino)-3H-imidazo[4,5-b]pyridin-5-yl)amino)-3-(2-methoxyethoxy)picolinonitrile]
The Kd of the first is higher: 0.1 to 0.5 nM for the first, less than 0.1 nM for the second. The second binds more tightly here.

Compared with `COCCOc1ccc(Nc2cc(Nc3ccc(F)cc3S(C)(=O)=O)c3nc(C)[nH]c3n2)nc1C#N` [I-622, 6-((7-((4-fluoro-2-(methylsulfonyl)phenyl)amino)-2-methyl-3H-imidazo[4,5-b]pyridin-5-yl)amino)-3-(2-methoxyethoxy)picolinonitrile], `CS(=O)(=O)c1cc(F)ccc1Nc1cc(Nc2ccc(OC3CCOCC3)c(C#N)n2)nc2[nH]c(C(F)F)nc12` [I-625, 6-((2-(difluoromethyl)-7-((4-fluoro-2-(methylsulfonyl)phenyl)amino)-3H-imidazo[4,5-b]pyridin-5-yl)amino)-3-((tetrahydro-2H-pyran-4-yl)oxy)picolinonitrile] is higher in Kd: less than 0.1 nM for the first, 0.1 to 0.5 nM for the second.

`CS(=O)(=O)c1ccccc1Nc1cc(Nc2ccc(OC3CCOCC3)c(C#N)n2)nc2[nH]c(C(F)F)nc12` [I-623, 6-((2-(difluoromethyl)-7-((2-(methylsulfonyl)phenyl)amino)-3H-imidazo[4,5-b]pyridin-5-yl)amino)-3-((tetrahydro-2H-pyran-4-yl)oxy)picolinonitrile] and `Cc1nc2c(Nc3ccccc3S(C)(=O)=O)cc(Nc3ccc(OC4CCOCC4)c(C#N)n3)nc2[nH]1` [I-624, 6-((2-methyl-7-((2-(methylsulfonyl)phenyl)amino)-3H-imidazo[4,5-b]pyridin-5-yl)amino)-3-((tetrahydro-2H-pyran-4-yl)oxy)picolinonitrile] cannot be ordered by Kd: less than 0.1 nM for the first, less than 0.1 nM for the second.
